Measured values as given in patent publication US20250163076A1, “SYNTHESIS OF BRUTON'S TYROSINE KINASE INHIBITORS” (JANSSEN PHARMACEUTICA NV, priority 2022, published 2025).
≈ marks a conversion by molar mass, not a printed value. Where two headings read alike, the source gives them in different places. Marks after values point to notes of the source that are not given here. One block for each compound: values may come before it.

How the values were obtained:
[1] = Aqueous solubility at pH 2 and pH 7; assay type: physicochemical
BTK = BTK (Homo sapiens, UniProt Q06187); test: BTK covalent inhibition kinetics (KI, kinact, kinact/KI); assay type: biochemical; settings: for Ki / kinact: average of 2 independent determinations (± SD)
BTK, sequence (Q06187 whole entry): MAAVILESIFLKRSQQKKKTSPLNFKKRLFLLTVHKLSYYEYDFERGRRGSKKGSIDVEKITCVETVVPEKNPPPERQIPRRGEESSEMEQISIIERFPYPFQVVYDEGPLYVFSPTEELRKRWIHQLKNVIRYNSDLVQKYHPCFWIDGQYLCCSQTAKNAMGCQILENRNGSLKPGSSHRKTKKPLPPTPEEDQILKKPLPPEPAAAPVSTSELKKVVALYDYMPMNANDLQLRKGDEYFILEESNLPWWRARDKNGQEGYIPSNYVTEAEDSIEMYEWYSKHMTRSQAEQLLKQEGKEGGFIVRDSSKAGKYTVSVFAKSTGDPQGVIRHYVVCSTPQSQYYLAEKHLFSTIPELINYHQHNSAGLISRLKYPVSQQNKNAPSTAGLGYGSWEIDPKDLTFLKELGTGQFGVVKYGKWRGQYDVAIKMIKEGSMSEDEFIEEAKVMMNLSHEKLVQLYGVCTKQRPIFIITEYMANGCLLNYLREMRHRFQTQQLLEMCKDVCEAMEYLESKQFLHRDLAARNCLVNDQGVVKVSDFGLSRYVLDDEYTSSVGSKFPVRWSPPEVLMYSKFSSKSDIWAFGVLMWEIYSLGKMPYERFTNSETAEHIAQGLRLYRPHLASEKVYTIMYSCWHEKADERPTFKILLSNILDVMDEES
Protocol: The development of the structure-activity relationship was conducted by characterizing the non-covalent affinity of each inhibitor for BTK (KI) and the first order rate constant for irreversible covalent bond formation (kinact). The second order rate constant kinact/KI ratio is used to assess the covalent inhibitor potency because it is independent of incubation time and substrate concentrations (Copeland, R. A. Evaluation of Enzyme Inhibitors in Drug Discovery: a Guide for Medicinal Chemists and Pharmacologists; 2nd ed.; Wiley: Hoboken, N.J., 2013).

[2] = Human liver microsomes T1/2; assay type: in vitro ADME; settings: human, liver microsomes
[3] = Solubility of P and M forms in solvent systems and their water mixtures; assay type: physicochemical
Source text: Moreover, this solubility difference can be tuned by changing the ratio between 1-propanol/water. Therefore, M form can be efficiently converted even starting from a 1:1 d.r. mixture.

[4] = aqueous medium, aqueous buffer, Table 4, pH 7, read-out: Solubility pH 7
[5] = aqueous medium, simulated gastric fluid, Table 4, pH 2, read-out: Solubility pH 2

- Solubility ([1]; aqueous medium, aqueous buffer, Table 5, pH 7, read-out: Solubility pH 7): 172 µM (≈ 86.8 µg/mL)
- Solubility ([1]; aqueous medium, simulated gastric fluid, Table 5, pH 2, read-out: Solubility pH 2): > 400 µM
- Ki (BTK; Table 5): 2550 nM
- kinact (BTK; Table 5): 0.000255 s⁻¹
- kinact/KI (BTK; Table 5, read-out: kinact/KI): 98.5 ± 12 M⁻¹ s⁻¹
- half-life ([2]; Table 5): 53 min
SMILES: C=CC(=O)N1CCC(NC(=O)c2sc3nccc4c3c2NC(=O)N4c2cnc(CC(C)C)cc2C)C1 (stereo not shown) [K]

- Solubility ([1]; aqueous medium at pH 2, simulated gastric fluid, Table 4, pH 2, read-out: Solubility pH 2): 350 µM (≈ 182 µg/mL)
- Solubility ([1]; aqueous medium at pH 7, aqueous buffer, Table 4, pH 7, read-out: Solubility pH 7): 23 µM (≈ 11.9 µg/mL)
- Ki (BTK; Table 4): 145 ± 20 nM
- kinact (BTK; Table 4): 0.000319 s⁻¹
- kinact/KI (BTK; Table 4, read-out: kinact/KI): 2220 ± 272 M⁻¹ s⁻¹
- half-life ([2]; Table 4): 6 min
SMILES: C=CC(=O)N1CCCC(NC(=O)c2sc3nccc4c3c2NC(=O)N4c2cnc(CC(C)C)cc2C)C1 (stereo not shown) [J]

Continued, compound first:

SMILES: C=CC(=O)N1CCCC(NC(=O)c2sc3nccc4c3c2NC(=O)N4c2cnc(OC(C)C)cc2C)C1 (stereo not shown) [Compound I]
- Solubility [1, 4]: 68 µM (≈ 35.4 µg/mL)
- Solubility [1, 5]: 119 µM (≈ 62 µg/mL)
- kinact/KI (BTK; Table 4): 1660 ± 62 M⁻¹ s⁻¹
- Ki (BTK; Table 4): 208 ± 15 nM
- kinact (BTK; Table 4): 0.000345 s⁻¹
- kinact/KI (BTK; Table 4, read-out: kinact/KI): 1660 M⁻¹ s⁻¹
- half-life ([2]; Table 4): 19 min

SMILES: C=CC(=O)N1CCCC(NC(=O)c2sc3nccc4c3c2NC(=O)N4c2cnc(OC3CCCC3)cc2C)C1 (stereo not shown) [Compound G]
- Solubility [1, 4]: < 4 µM
- Solubility [1, 5]: 15 µM (≈ 8.2 µg/mL)
- Ki (BTK; Table 4): 22.2 ± 3.3 nM
- kinact (BTK; Table 4): 0.000307 s⁻¹
- kinact/KI (BTK; Table 4, read-out: kinact/KI): 13800 ± 430 M⁻¹ s⁻¹
- half-life ([2]; Table 4): < 4 min

SMILES: C=CC(=O)N[C@H]1CCC[C@H]1NC(=O)c1sc2nccc3c2c1NC(=O)N3c1cnc(CC(C)C)cc1C (single isomer, unassigned) [M form]
- Solubility ([3]; 1-Butanol/water (~6/94 w/w %), 10° C.): 0.2 mg/mL (≈ 0.386 mM)
- Solubility ([3]; 1-Butanol/water (~6/94 w/w %), 25° C.): 0.3 mg/mL (≈ 0.578 mM)
- Solubility ([3]; 1-Butanol/water (~6/94 w/w %), 50° C.): immiscible
- Solubility ([3]; 1-Butanol/water (~80/20 w/w %), 10° C.): 346.6 mg/mL (≈ 668 mM)
- Solubility ([3]; 1-Butanol/water (~80/20 w/w %), 25° C.): 334.0 mg/mL (≈ 644 mM)
- Solubility ([3]; 1-Butanol/water (~80/20 w/w %), 50° C.): immiscible
- Solubility ([3]; 1-Butanol, 10° C.): 397.5* mg/mL
- Solubility ([3]; 1-Butanol, 25° C.): 266.2 mg/mL (≈ 513 mM)
- Solubility ([3]; 1-Butanol, 50° C.): 444.7 mg/mL (≈ 857 mM)
- Solubility ([3]; 1-Propanol/water (20/80 w/w %), 10° C.): 4.2 mg/mL (≈ 8.1 mM)
- Solubility ([3]; 1-Propanol/water (20/80 w/w %), 25° C.): 3.7 mg/mL (≈ 7.13 mM)
- Solubility ([3]; 1-Propanol/water (20/80 w/w %), 50° C.): 4.9 mg/mL (≈ 9.45 mM)
- Solubility ([3]; 1-Propanol/water (33/67 w/w %), 25° C.): 39.9 mg/mL (≈ 76.9 mM)
- Solubility ([3]; 1-Propanol/water (33/67 w/w %), 50° C.): 285.9 mg/mL (≈ 551 mM)
- Solubility ([3]; 1-Propanol/water (50/50 w/w %), 25° C.): 187.5 mg/mL (≈ 362 mM)
- Solubility ([3]; 1-Propanol/water (50/50 w/w %), 50° C.): 276.3 mg/mL (≈ 533 mM)
- Solubility ([3]; 1-Propanol/water (67/33 w/w %), 10° C.): 341.7 mg/mL (≈ 659 mM)
- Solubility ([3]; 1-Propanol/water (67/33 w/w %), 25° C.): 336.5 mg/mL (≈ 649 mM)
- Solubility ([3]; 1-Propanol/water (67/33 w/w %), 50° C.): 363.3 mg/mL (≈ 700 mM)
- Solubility ([3]; 1-Propanol/water (80/20 w/w %), 10° C.): 394.0 mg/mL (≈ 760 mM)
- Solubility ([3]; 1-Propanol/water (80/20 w/w %), 25° C.): 386.8 mg/mL (≈ 746 mM)
- Solubility ([3]; 1-Propanol/water (80/20 w/w %), 50° C.): 394.5 mg/mL (≈ 761 mM)
- Solubility ([3]; 1-Propanol, 10° C.): 500.4 mg/mL (≈ 965 mM)
- Solubility ([3]; 1-Propanol, 25° C.): 265.4 mg/mL (≈ 512 mM)
- Solubility ([3]; 2-butanol/water (~17/83 w/w %), 10° C.): 2.5 mg/mL (≈ 4.82 mM)
- Solubility ([3]; 2-butanol/water (~17/83 w/w %), 25° C.): 1.7 mg/mL (≈ 3.28 mM)
- Solubility ([3]; 2-butanol/water (~17/83 w/w %), 50° C.): 0.2 mg/mL (≈ 0.386 mM)
- Solubility ([3]; Isobutanol/water (~8/92 w/w %), 10° C.): 0.2 mg/mL (≈ 0.386 mM)
- Solubility ([3]; Isobutanol/water (~8/92 w/w %), 25° C.): 0.2 mg/mL (≈ 0.386 mM)
- Solubility ([3]; Isobutanol/water (~8/92 w/w %), 50° C.): 0.1 mg/mL (≈ 0.193 mM)
- Solubility ([3]; Isobutanol, 10° C.): 272.5* mg/mL
- Solubility ([3]; Isobutanol, 25° C.): 238.0 mg/mL (≈ 459 mM)
- Solubility ([3]; Isobutanol, 50° C.): 389.4 mg/mL (≈ 751 mM)
- Solubility ([3]; Isopropanol/water (~16/84 w/w %), 10° C.): 0.6 mg/mL (≈ 1.16 mM)
- Solubility ([3]; Isopropanol/water (~16/84 w/w %), 25° C.): 0.6 mg/mL (≈ 1.16 mM)
- Solubility ([3]; Isopropanol/water (~16/84 w/w %), 50° C.): 4.0 mg/mL (≈ 7.71 mM)
- Solubility ([3]; Isopropanol/water (~28/72 w/w %), 10° C.): 3.0 mg/mL (≈ 5.78 mM)
- Solubility ([3]; Isopropanol/water (~28/72 w/w %), 25° C.): 4.6 mg/mL (≈ 8.87 mM)
- Solubility ([3]; Isopropanol/water (~28/72 w/w %), 50° C.): 10.0 mg/mL (≈ 19.3 mM)
- Solubility ([3]; Isopropanol/water (~44/56 w/w %), 10° C.): 31.0 mg/mL (≈ 59.8 mM)
- Solubility ([3]; Isopropanol/water (~44/56 w/w %), 25° C.): 31.0 mg/mL (≈ 59.8 mM)
- Solubility ([3]; Isopropanol/water (~44/56 w/w %), 50° C.): >200 mg/mL
- Solubility ([3]; Isopropanol/water (~61/39 w/w %), 10° C.): 126.0 mg/mL (≈ 243 mM)
- Solubility ([3]; Isopropanol/water (~61/39 w/w %), 25° C.): 109.0 mg/mL (≈ 210 mM)
- Solubility ([3]; Isopropanol/water (~61/39 w/w %), 50° C.): >200 mg/mL
- Solubility ([3]; Propylene carbonate/water (93/7 w/w %), 10° C.): 129.8 mg/mL (≈ 250 mM)
- Solubility ([3]; Propylene carbonate/water (93/7 w/w %), 25° C.): 123.9 mg/mL (≈ 239 mM)
- Solubility ([3]; Propylene carbonate/water (93/7 w/w %), 50° C.): 106.5 mg/mL (≈ 205 mM)
- Solubility ([3]; Propylene carbonate, 10° C.): 163.1 mg/mL (≈ 314 mM)
- Solubility ([3]; Propylene carbonate, 25° C.): 73.7 mg/mL (≈ 142 mM)
- Solubility ([3]; Propylene carbonate, 50° C.): 107.0* mg/mL
